# Test results as given in patent publication US6900219B2, “ABCA-1 elevating compounds” (CV Therapeutics, Inc., priority 2002, dated 2005).
# Tested on: ABCA-1 gene
# Assay: compounds tested and found to elevate cellular expression of the ABCA-1 gene (Examples 1-6; test not named)
# Type: cell-based
# Protocol: Activity testing is conducted as described in those patents and patent applications referenced above, and in the Examples below, and by methods apparent to one skilled in the art.
row,SMILES,cellular expression of the ABCA-1 gene
1,CCCN(C(=O)Nc1cccc(F)c1)C(C)c1nc2ccccc2c(=O)n1-c1ccc2ccccc2c1 (stereo not drawn) [[(3-fluorophenyl)amino]-N-[(3-(2-naphthyl)-4-oxo(3-hydroquinazolin-2-yl))ethyl]-N-propylcarboxamide],elevate cellular expression of the ABCA-1 gene
2,"CC(=O)c1ccc(NC(=O)Nc2ccc(Cl)c(Cl)c2)cc1 [[(4-acetylphenyl)amino]-N-(3,4-dichlorophenyl)carboxamide]",elevate cellular expression of the ABCA-1 gene
3,CCCN(C(=O)Nc1ccc(Br)cc1)C(C)c1nc2ccccc2c(=O)n1-c1ccc2ccccc2c1 (stereo not drawn) [[(4-bromophenyl)amino]-N-[(3-(2-naphthyl)-4-oxo(3-hydroquinazolin-2-yl))ethyl]-N-propylcarboxamide],elevate cellular expression of the ABCA-1 gene
4,CC(C)CN(C(=O)Nc1ccc(Cl)cc1)C(C)c1nc2ccccc2c(=O)n1-c1ccc2ccccc2c1 (stereo not drawn) [[(4-chlorophenyl)amino]-N-(2-methylpropyl)-N-[(3-(2-naphthyl)-4-oxo(3-hydroquinazolin-2-yl))ethyl]carboxamide],elevate cellular expression of the ABCA-1 gene
5,O=C(Nc1ccc(Cl)cc1)NC1CCCCC1 [[(4-chlorophenyl)amino]-N-cyclohexylcarboxamide],elevate cellular expression of the ABCA-1 gene
6,Cc1ccc(NC(=O)N(CC(C)C)C(C)c2nc3ccccc3c(=O)n2-c2ccc3ccccc3c2)cc1 (stereo not drawn) [[(4-methylphenyl)amino]-N-(2-methylpropyl)-N-[(3-(2-naphthyl)-4-oxo(3-hydroquinazolin-2-yl))ethyl]carboxamide],elevate cellular expression of the ABCA-1 gene
7,"CCCCCc1ccc(NC(=O)NC2=NCCS2)cc1 [[(4-pentylphenyl)amino]-N-(1,3-thiazolin-2-yl)carboxamide]",elevate cellular expression of the ABCA-1 gene
8,O=C(NCC1CCCCC1)Nc1ccc2c(c1)CCC2 [[(cyclohexylmethyl)amino]-N-indan-5-ylcarboxamide],elevate cellular expression of the ABCA-1 gene
9,CCOc1ccc2nc(NC(=O)NC(C)(C)C)sc2c1 [[t-butylamino]-N-(6-ethoxybenzothiazol-2-yl)carboxamide],elevate cellular expression of the ABCA-1 gene
10,"O=C(Nc1ccc(F)cc1F)c1cc2ccccc2s1 [benzo[b]thiophen-2-yl-N-(2,4-difluorophenyl)carboxamide]",elevate cellular expression of the ABCA-1 gene
11,O=C(Nc1nc2c(Cl)cccc2s1)c1cc2ccccc2s1 [benzo[b]thiophen-2-yl-N-(4-chlorobenzothiazol-2-yl)carboxamide],elevate cellular expression of the ABCA-1 gene
12,O=C(Nc1nc2ccccc2s1)c1cc2ccccc2s1 [benzo[b]thiophen-2-yl-N-benzothiazol-2-ylcarboxamide],elevate cellular expression of the ABCA-1 gene
13,Cc1cc(C(=O)c2cc3ccccc3o2)ccc1Cl [benzo[d]furan-2-yl 4-chloro-3-methylphenyl ketone],elevate cellular expression of the ABCA-1 gene
14,COc1cccc(Nc2nc3ccccc3s2)c1 [benzothiazol-2-yl-(3-methoxyphenyl)amine],elevate cellular expression of the ABCA-1 gene
15,"O=C(Nc1ncc(-c2ccccc2)s1)C1CCCCC1 [cyclohexyl-N-(5-phenyl(1,3-thiazol-2-yl))carboxamide]",elevate cellular expression of the ABCA-1 gene
16,"O=C(Nc1nc(-c2ccc3ccccc3c2)cs1)C1CCCC1 [cyclopentyl-N-(4-(2-naphthyl)(1,3-thiazol-2-yl))carboxamide]",elevate cellular expression of the ABCA-1 gene
17,"O=C(Nc1ncc(-c2ccccc2)s1)C1CCCC1 [cyclopentyl-N-(5-phenyl(1,3-thiazol-2-yl))carboxamide]",elevate cellular expression of the ABCA-1 gene
18,"O=C(Nc1nc(-c2ccccc2)ns1)C1CC1 [cyclopropyl-N-(3-phenyl(1,2,4-thiadiazol-5-yl))carboxamide]",elevate cellular expression of the ABCA-1 gene
19,"O=C(Nc1ncc(-c2ccccc2)s1)C1CC1 [cyclopropyl-N-(5-phenyl(1,3-thiazol-2-yl))carboxamide]",elevate cellular expression of the ABCA-1 gene
20,"O=C(Nc1ncc(-c2ccc(F)cc2)s1)C1CC1 [cyclopropyl-N-[5-(4-fluorophenyl)(1,3-thiazol-2-yl)]carboxamide]",elevate cellular expression of the ABCA-1 gene

row,SMILES,cellular expression of the ABCA-1 gene
1,"CCOC(=O)C1CCCCN1C(=O)c1ccc2c(c1)OCO2 (stereo not drawn) [ethyl 1-(2H-benzo[d]1,3-dioxolen-5-ylcarbonyl)piperidine-2-carboxylate]",elevate cellular expression of the ABCA-1 gene
2,"CCOC(=O)C1=C(NCCc2ccccc2)CCN(C(=O)c2ccc(Cl)cc2Cl)C1 [ethyl 1-[(2,4-dichlorophenyl)carbonyl]-4-[(2-phenylethyl)amino]-1,2,5,6-tetrahydropyridine-3-carboxylate]",elevate cellular expression of the ABCA-1 gene
3,"CCOC(=O)C1=C(NCCc2ccccc2)CCN(C(=O)c2ccc([N+](=O)[O-])cc2Cl)C1 [ethyl 1-[(2-chloro-4-nitrophenyl)carbonyl]-4-[(2-phenylethyl)amino]-1,2,5,6-tetrahydropyridine-3-carboxylate]",elevate cellular expression of the ABCA-1 gene
4,"CCOC(=O)C1=C(NCCc2ccccc2)CCN(C(=O)c2ccccc2C)C1 [ethyl 1-[(2-methylphenyl)carbonyl]-4-[(2-phenylethyl)amino]-1,2,5,6-tetrahydropyridine-3-carboxylate]",elevate cellular expression of the ABCA-1 gene
5,"CCOC(=O)C1=C(NCCc2ccccc2)CCN(C(=O)c2ccc(Br)cc2)C1 [ethyl 1-[(4-bromophenyl)carbonyl]-4-[(2-phenylethyl)amino]-1,2,5,6-tetrahydropyridine-3-carboxylate]",elevate cellular expression of the ABCA-1 gene
6,"CCOC(=O)C1=C(NCCc2ccccc2)CCN(C(=O)c2ccc(CC)cc2)C1 [ethyl 1-[(4-ethylphenyl)carbonyl]-4-[(2-phenylethyl)amino]-1,2,5,6-tetrahydropyridine-3-carboxylate]",elevate cellular expression of the ABCA-1 gene
7,"CCOC(=O)C1=C(NCCc2ccccc2)CCN(C(=O)c2ccc(F)cc2)C1 [ethyl 1-[(4-fluorophenyl)carbonyl]-4-[(2-phenylethyl)amino]-1,2,5,6-tetrahydropyridine-3-carboxylate]",elevate cellular expression of the ABCA-1 gene
8,"CCOC(=O)C1=C(NCCc2ccccc2)CCN(C(=O)c2ccc(OC)cc2)C1 [ethyl 1-[(4-methoxyphenyl)carbonyl]-4-[(2-phenylethyl)amino]-1,2,5,6-tetrahydropyridine-3-carboxylate]",elevate cellular expression of the ABCA-1 gene
9,"CCOC(=O)C1=C(NCCc2ccccc2)CCN(C(=O)c2ccc(C)cc2)C1 [ethyl 1-[(4-methylphenyl)carbonyl]-4-[(2-phenylethyl)amino]-1,2,5,6-tetrahydropyridine-3-carboxylate]",elevate cellular expression of the ABCA-1 gene
10,"CCOC(=O)C1=C(NCCc2ccccc2)CCN(C(=O)c2ccc([N+](=O)[O-])cc2)C1 [ethyl 1-[(4-nitrophenyl)carbonyl]-4-[(2-phenylethyl)amino]-1,2,5,6-tetrahydropyridine-3-carboxylate]",elevate cellular expression of the ABCA-1 gene
11,"CCOC(=O)C1=C(NCCc2ccccc2)CCN(C(=O)c2ccc(C(C)(C)C)cc2)C1 [ethyl 1-[(4-t-butylphenyl)carbonyl]-4-[(2-phenylethyl)amino]-1,2,5,6-tetrahydropyridine-3-carboxylate]",elevate cellular expression of the ABCA-1 gene
12,"CCOC(=O)Cc1csc(NC(=O)Nc2ccccc2F)n1 [ethyl 2-(2-{[(2-fluorophenyl)amino]carbonylamino}-1,3-thiazol-4-yl)acetate]",elevate cellular expression of the ABCA-1 gene
13,CCOC(=O)CNC(=O)N(CCN(C)C)C(C)c1nc2ccccc2c(=O)n1-c1ccc2ccccc2c1 (stereo not drawn) [ethyl 2-({N-[2-(dimethylamino)ethyl]-N-[(3-(2-naphthyl)-4-oxo(3-hydroquinazolin-2-yl))ethyl]carbamoyl}amino)acetate],elevate cellular expression of the ABCA-1 gene
14,CCOC(=O)CNC(=O)N(CCOC)C(C)c1nc2ccccc2c(=O)n1-c1ccc(Br)cc1 (stereo not drawn) [ethyl 2-[(N-{[3-(4-bromophenyl)-4-oxo(3-hydroquinazolin-2-yl)]ethyl}-N-(2-methoxyethyl)carbamoyl)amino]acetate],elevate cellular expression of the ABCA-1 gene
15,"CCOC(=O)CCN(CCc1ccccc1)C(=O)c1ccc2c(c1)OCO2 [ethyl 3-[2H-benzo[d]1,3-dioxolen-5-yl-N-(2-phenylethyl)carbonylamino]propanoate]",elevate cellular expression of the ABCA-1 gene
16,CCOC(=O)CCN(C(=O)CCc1ccccc1)c1ccc(Br)cc1 [ethyl 3-[(4-bromophenyl)-N-(2-phenylethyl)carbonylamino]propanoate],elevate cellular expression of the ABCA-1 gene
17,CCOC(=O)CCN(C(=O)CCc1ccccc1)c1ccc(CC)cc1 [ethyl 3-[(4-ethylphenyl)-N-(2-phenylethyl)carbonylamino]propanoate],elevate cellular expression of the ABCA-1 gene
18,"CCOC(=O)C1=C(NCCc2ccccc2)CCN(C(=O)c2ccc(-c3ccccc3)cc2)C1 [ethyl 4-[(2-phenylethyl)amino]-1-[(4-phenylphenyl)carbonyl]-1,2,5,6-tetrahydropyridine-3-carboxylate]",elevate cellular expression of the ABCA-1 gene
19,CCOC(=O)c1ccc(NC(=O)Nc2ccccc2)cc1 [ethyl 4-[(phenylamino)carbonylamino]benzoate],elevate cellular expression of the ABCA-1 gene
